In patent US12077503B2, “Substituted cyclic amides and their use as herbicides” (FMC CORPORATION, priority 2015, dated 2024):

Key:
Assay type in all cases: in vivo
Kochia (Kochia scoparia) [1] = assay: Test A preemergence; conditions: Bassia scoparia, pre-emergence, 240 h
Summary of the method: (§1)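 Ratings of 0 (no effect) to 100 (complete control) come from visual comparison with untreated controls roughly 10 d after treatment. Test chemicals, formulated in a non-phytotoxic solvent mixture with surfactant, were applied either as a preemergence directed soil spray on seeded soil or postemergence to one- to two-leaf plants 2 to 10 cm tall.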

[2] = system: barnyardgrass (Echinochloa crus-galli); assay: Test A preemergence; conditions: Echinochloa crus-galli, pre-emergence, 240 h
Summary of the method: as §1

[3] = system: giant foxtail (Setaria faberii); assay: Test A preemergence; conditions: Setaria faberi, pre-emergence, 240 h
Summary of the method: as §1

[4] = system: pigweed (Amaranthus retroflexus); assay: Test A preemergence; conditions: Amaranthus retroflexus, pre-emergence, 240 h
[5] = system: ragweed (common ragweed, Ambrosia elatior); assay: Test A preemergence; conditions: Ambrosia artemisiifolia, pre-emergence, 240 h
Summary of the method: as §1

[6] = system: ryegrass, Italian (Italian ryegrass, Lolium multiflorum); assay: Test A preemergence; conditions: Lolium multiflorum, pre-emergence, 240 h
Summary of the method: as §1

[7] = system: Galium (catchweed bedstraw, Galium aparine); assay: Test A postemergence; conditions: Galium, post-emergence, 240 h, read-out: Plant response rating, Galium
Summary of the method: as §1

Kochia (Kochia scoparia) [8] = assay: Test A postemergence; conditions: Bassia scoparia, post-emergence, 240 h, read-out: Plant response rating, Kochia
Summary of the method: as §1

[9] = system: barnyardgrass (Echinochloa crus-galli); assay: Test A postemergence; conditions: Echinochloa crus-galli, post-emergence, 240 h, read-out: Plant response rating, Barnyardgrass
Summary of the method: as §1

[10] = system: blackgrass (Alopecurus myosuroides); assay: Test A postemergence; conditions: Alopecurus myosuroides, post-emergence, 240 h, read-out: Plant response rating, Blackgrass
Summary of the method: as §1

corn (Zea mays) = assay: Test A postemergence; conditions: Zea mays, post-emergence, 240 h
Summary of the method: as §1

[11] = system: giant foxtail (Setaria faberii); assay: Test A postemergence; conditions: Setaria faberi, post-emergence, 240 h, read-out: Plant response rating, Foxtail, Giant
Summary of the method: as §1

[12] = system: pigweed (Amaranthus retroflexus); assay: Test A postemergence; conditions: Amaranthus retroflexus, post-emergence, 240 h, read-out: Plant response rating, Pigweed
Summary of the method: as §1

[13] = system: ragweed (common ragweed, Ambrosia elatior); assay: Test A postemergence; conditions: Ambrosia artemisiifolia, post-emergence, 240 h, read-out: Plant response rating, Ragweed
Summary of the method: as §1

[14] = system: ryegrass, Italian (Italian ryegrass, Lolium multiflorum); assay: Test A postemergence; conditions: Lolium multiflorum, post-emergence, 240 h, read-out: Plant response rating, Ryegrass, Italian
Summary of the method: as §1

[15] = system: wheat (Triticum aestivum); assay: Test A postemergence; conditions: Triticum aestivum, post-emergence, 240 h, read-out: Plant response rating, Wheat
Summary of the method: as §1

[16] = system: barnyardgrass (Echinochloa crus-galli); assay: Test B flooded paddy test; conditions: Echinochloa crus-galli, 250 g ai/ha, Flood; 0 to 100 scale where 0 is no effect and 100 is complete control; read-out: Barnyardgrass plant response rating
Summary of the method: (§2)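 Response scored visually against untreated controls, 0 = no effect and 100 = complete control, 13–15 d after treatment in the greenhouse. Compounds added to paddy water held 3 cm above soil surface. Treatment given at 2-leaf stage.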

[17] = system: ducksalad (Heteranthera limosa); assay: Test B flooded paddy test; conditions: Heteranthera limosa, 250 g ai/ha, Flood; 0 to 100 scale where 0 is no effect and 100 is complete control; read-out: Ducksalad plant response rating
Summary of the method: as §2

rice (Oryra sativa) = assay: Test B flooded paddy test; conditions: Oryza sativa, 250 g ai/ha, Flood; 0 to 100 scale where 0 is no effect and 100 is complete control; read-out: Rice plant response rating
Summary of the method: as §2

[18] = system: sedge, umbrella (small-flower umbrella sedge, Cyperus difformis); assay: Test B flooded paddy test; conditions: Cyperus difformis, 250 g ai/ha, Flood; 0 to 100 scale where 0 is no effect and 100 is complete control; read-out: Sedge, Umbrella plant response rating
Summary of the method: as §2

[19] = 125 g ai/ha, Postemergence, visual injury after approximately 10 d, 0 to 100 scale where 0 is no effect and 100 is complete control
[20] = 500 g ai/ha, postemergence, visual injury, 0 to 100 scale (0 no effect, 100 complete control), approx. 10 d

CN1CC[C@H](c2ccc(OC(F)(F)F)cc2)[C@@H](C(=O)Nc2ccc(F)c(F)c2F)C1=O [Compound 1000]
0%: pest or weed control at 125 g/ha (Kochia (Kochia scoparia) [1]; 125 g ai/ha, Preemergence, visual injury rating after approximately 10 d, read-out: Kochia plant response rating (0 to 100 scale, 0 is no effect, 100 is complete control)) | pest or weed control at 500 g/ha (Kochia (Kochia scoparia) [1]; 500 g ai/ha, preemergence, visual injury rating about 10 d after treatment, 0 to 100 scale (0 no effect, 100 complete control), read-out: Kochia plant response rating) | pest or weed control at 125 g/ha ([2]; 125 g ai/ha, Preemergence, visual injury rating after approximately 10 d, read-out: Barnyardgrass plant response rating (0 to 100 scale, 0 is no effect, 100 is complete control)) | pest or weed control at 125 g/ha ([5]; 125 g ai/ha, Preemergence, visual injury rating after approximately 10 d, read-out: Ragweed plant response rating (0 to 100 scale, 0 is no effect, 100 is complete control)) | pest or weed control at 500 g/ha ([5]; 500 g ai/ha, preemergence, visual injury rating about 10 d after treatment, 0 to 100 scale (0 no effect, 100 complete control), read-out: Ragweed plant response rating) | pest or weed control at 125 g/ha ([6]; 125 g ai/ha, Preemergence, visual injury rating after approximately 10 d, read-out: Ryegrass, Italian plant response rating (0 to 100 scale, 0 is no effect, 100 is complete control)) | pest or weed control at 125 g/ha [7, 19] | pest or weed control at 500 g/ha [7, 20] | pest or weed control at 125 g/ha [10, 19] | pest or weed control at 500 g/ha [10, 20] | Corn plant response rating (crop injury, 0 = no effect, 100 = complete kill) at 125 g/ha (corn (Zea mays); [19]) | pest or weed control at 125 g/ha [11, 19] | pest or weed control at 125 g/ha [12, 19] | pest or weed control at 500 g/ha [12, 20] | pest or weed control at 125 g/ha [13, 19] | pest or weed control at 500 g/ha [13, 20] | pest or weed control at 125 g/ha [14, 19] | pest or weed control at 500 g/ha [14, 20] | plant injury at 125 g/ha [15, 19] | plant injury at 500 g/ha [15, 20] | pest or weed control at 250 g/ha [16] | pest or weed control at 250 g/ha (rice (Oryra sativa)) | pest or weed control at 250 g/ha [18]
70%: pest or weed control at 125 g/ha ([3]; 125 g ai/ha, Preemergence, visual injury rating after approximately 10 d, read-out: Foxtail, Giant plant response rating (0 to 100 scale, 0 is no effect, 100 is complete control))
60%: pest or weed control at 500 g/ha ([2]; 500 g ai/ha, preemergence, visual injury rating about 10 d after treatment, 0 to 100 scale (0 no effect, 100 complete control), read-out: Barnyardgrass plant response rating) | pest or weed control at 125 g/ha [9, 19]
90%: pest or weed control at 500 g/ha ([3]; 500 g ai/ha, preemergence, visual injury rating about 10 d after treatment, 0 to 100 scale (0 no effect, 100 complete control), read-out: Foxtail, Giant plant response rating) | pest or weed control at 250 g/ha [17]
40%: pest or weed control at 500 g/ha ([4]; 500 g ai/ha, preemergence, visual injury rating about 10 d after treatment, 0 to 100 scale (0 no effect, 100 complete control), read-out: Pigweed plant response rating) | pest or weed control at 125 g/ha (Kochia (Kochia scoparia) [8]; [19]) | pest or weed control at 500 g/ha (Kochia (Kochia scoparia) [8]; [20])
20%: pest or weed control at 125 g/ha ([4]; 125 g ai/ha, Preemergence, visual injury rating after approximately 10 d, read-out: Pigweed plant response rating (0 to 100 scale, 0 is no effect, 100 is complete control)) | pest or weed control at 500 g/ha ([6]; 500 g ai/ha, preemergence, visual injury rating about 10 d after treatment, 0 to 100 scale (0 no effect, 100 complete control), read-out: Ryegrass, Italian plant response rating) | Corn plant response rating (crop injury, 0 = no effect, 100 = complete kill) at 500 g/ha (corn (Zea mays); [20])
50%: pest or weed control at 500 g/ha [11, 20]
100%: pest or weed control at 500 g/ha [9, 20]
